Assays:
UACC-257 = test: Antitumor activity against human UACC257 cells; format: functional
UO-31 = test: Antitumor activity against human UO31 cells; format: functional
A498 = test: Antitumor activity against human A498 cells; format: functional
CCRF-CEM [1] = test: Growth inhibition of huam CCRF-CEM at 1 uM; format: functional; details: Homo sapiens
HCT-116 = test: Antitumor activity against human HCT116 cells; format: functional
EKVX = test: Antitumor activity against human EKVX cells; format: functional
SK-OV-3 = test: Antitumor activity against human SK-OV-3 cells; format: functional
UACC-62 = test: Antitumor activity against human UACC62 cells; format: functional
SN12C = test: Antitumor activity against human SN12C cells; format: functional
KM12 = test: Antitumor activity against human KM12 cells; format: functional
CCRF-CEM [2] = test: Antitumor activity against human CCRF-CEM cells; format: functional
LOX IMVI = test: Antitumor activity against human LOX IMVI cells; format: functional
MDA-MB-435 = test: Antitumor activity against human MDA-MB-435 cells; format: functional
SR [3] = test: Growth inhibition of human SR cells at 1 uM; format: functional
[4] = Antitumor activity against human […] cells; format: functional
SNB-19 = test: Antitumor activity against human SNB19 cells; format: functional
TK-10 = test: Antitumor activity against human TK10 cells; format: functional
COLO 205 = test: Antitumor activity against human COLO205 cells; format: functional
SF-539 = test: Antitumor activity against human SF539 cells; format: functional
NCI-H23 = test: Antitumor activity against human NCI-H23 cells; format: functional
[5] = Growth inhibition of human HS 578T cells at 10 nM; format: functional
MCF7 = test: Antitumor activity against human MCF7 cells; format: functional
A549 = test: Antitumor activity against human A549 cells; format: functional
MOLT-4 = test: Antitumor activity against human MOLT4 cells; format: functional
[6] = Antitumor activity against human HL60 (TB) cells; format: functional, HL-60(TB); details: HL-60
HT-29 = test: Antitumor activity against human HT29 cells; format: functional
OVCAR-4 = test: Antitumor activity against human OVCAR4 cells; format: functional
OVCAR-8 = test: Antitumor activity against human OVCAR8 cells; format: functional
SK-MEL-5 = test: Antitumor activity against human SK-MEL-5 cells; format: functional
HCT-15 = test: Antitumor activity against human HCT15 cells; format: functional
SNB-75 = test: Antitumor activity against human SNB75 cells; format: functional
SF-268 = test: Antitumor activity against human SF268 cells; format: functional
Malme-3M = test: Antitumor activity against human MALME-3M cells; format: functional
U-251 = test: Antitumor activity against human U251 cells; format: functional
RXF 393 = test: Antitumor activity against human RXF393 cells; format: functional
SR [7] = test: Antitumor activity against human SR cells; format: functional
PC-3 = test: Antitumor activity against human PC3 cells; format: functional
HCC 2998 = test: Antitumor activity against human HCC2998 cells; format: functional
NCI-H522 [8] = test: Antitumor activity against human NCI-H522 cells; format: functional
NCI-H460 = test: Antitumor activity against human NCI-H460 cells; format: functional
NCI-H226 = test: Antitumor activity against human NCI-H226 cells; format: functional
SF-295 = test: Antitumor activity against human SF295 cells; format: functional
DU-145 = test: Antitumor activity against human DU145 cells; format: functional
SW-620 = test: Antitumor activity against human SW620 cells; format: functional
[9] = Antitumor activity against human NCI-H322 cells; format: functional
RPMI-8226 = test: Antitumor activity against human RPMI8226 cells; format: functional
K562 = test: Antitumor activity against human K562 cells; format: functional
786-0 = test: Antitumor activity against human 786-0 cells; format: functional
OVCAR-5 = test: Antitumor activity against human OVCAR5 cells; format: functional
SK-MEL-28 = test: Antitumor activity against human SK-MEL-28 cells; format: functional
BT-549 = test: Antitumor activity against human BT549 cells; format: functional
ACHN = test: Antitumor activity against human ACHN cells; format: functional
[10] = Antitumor activity against human HS 578T cells; format: functional
NCI/ADR-RES = test: Antitumor activity against human NCI/ADR-RES cells; format: functional
HOP-62 = test: Antitumor activity against human HOP62 cells; format: functional
HOP-92 = test: Antitumor activity against human HOP92 cells; format: functional
OVCAR-3 = test: Antitumor activity against human OVCAR-3 cells; format: functional
CAKI-1 = test: Antitumor activity against human CAKI-1 cells; format: functional
IGROV-1 [11] = test: Growth inhibition of human IGROV1 cells at 10 nM; format: functional
IGROV-1 [12] = test: Growth inhibition of human IGROV1 cells at 10 uM; format: functional
IGROV-1 [13] = test: Growth inhibition of human IGROV1 cells at 0.1 uM; format: functional
IGROV-1 [14] = test: Antitumor activity against human IGROV1 cells; format: functional
IGROV-1 [15] = test: Growth inhibition of human IGROV1 cells at 1 uM; format: functional
NCI-H522 [16] = test: Growth inhibition of human NCI-H522 cells at 1 uM; format: functional
NCI-H522 [17] = test: Growth inhibition of human NCI-H522 cells at 10 uM; format: functional

## OC[C@H]1C[C@](O)(c2ccc(Cl)cc2)[C@@H](c2ccc(Cl)cc2)O1 (relative stereo)
UACC-257
  GI50: 21.4 µM
UO-31
  GI50: 19.5 µM
A498
  GI50: 24.5 µM
CCRF-CEM [1]
  inhibition at 1 µM: 71%
HCT-116
  GI50: 17.4 µM
EKVX
  GI50: 18.2 µM
SK-OV-3
  GI50: 39.8 µM
UACC-62
  GI50: 15.8 µM
SN12C
  GI50: 17 µM
KM12
  GI50: 20.4 µM
CCRF-CEM [2]
  GI50: 0.468 µM
LOX IMVI
  GI50: 17.8 µM
MDA-MB-435
  GI50: 22.9 µM
SR [3]
  inhibition at 1 µM: 87%
[4]
  GI50: 19.5 µM
SNB-19
  GI50: 38 µM
TK-10
  GI50: 30.2 µM
COLO 205
  GI50: 25.7 µM
SF-539
  GI50: 23.4 µM
NCI-H23
  GI50: 24.5 µM
[5]
  inhibition at 0.01 µM: 21%
MCF7
  GI50: 30.2 µM
A549
  GI50: 29.5 µM
MOLT-4
  GI50: 17.8 µM
[6]
  GI50: 17.4 µM
HT-29
  GI50: 24 µM
OVCAR-4
  GI50: 32.4 µM
OVCAR-8
  GI50: 30.9 µM
SK-MEL-5
  GI50: 15.1 µM
HCT-15
  GI50: 31.6 µM
SNB-75
  GI50: 22.9 µM
SF-268
  GI50: 26.9 µM
Malme-3M
  GI50: 21.4 µM
U-251
  GI50: 24.5 µM
RXF 393
  GI50: 20.9 µM
SR [7]
  GI50: 20.4 µM
PC-3
  GI50: 20 µM
HCC 2998
  GI50: 24 µM
NCI-H522 [8]
  GI50: 26.3 µM
NCI-H460
  GI50: 20 µM
NCI-H226
  GI50: 26.3 µM
SF-295
  GI50: 30.2 µM
DU-145
  GI50: 21.9 µM
SW-620
  GI50: 27.5 µM
[9]
  GI50: 35.5 µM
RPMI-8226
  GI50: 13.8 µM
K562
  GI50: 25.1 µM
786-0
  GI50: 22.4 µM
OVCAR-5
  GI50: 25.7 µM
SK-MEL-28
  GI50: 28.8 µM
BT-549
  GI50: 16.6 µM
ACHN
  GI50: 28.2 µM
[10]
  GI50: 18.2 µM
NCI/ADR-RES
  GI50: 30.2 µM
HOP-62
  GI50: 20.9 µM
HOP-92
  GI50: 17 µM
OVCAR-3
  GI50: 26.3 µM
CAKI-1
  GI50: 26.9 µM

## OC[C@H]1C[C@](O)(c2ccccc2Cl)[C@@H](c2ccccc2Cl)O1 (relative stereo)
UACC-257
  GI50: 19.1 µM
UO-31
  GI50: 22.9 µM
A498
  GI50: 22.9 µM
IGROV-1 [11]
  inhibition at 0.01 µM: 15%
HCT-116
  GI50: 25.7 µM
EKVX
  GI50: 19.1 µM
SK-OV-3
  GI50: 23.4 µM
UACC-62
  GI50: 16.6 µM
SN12C
  GI50: 20.9 µM
KM12
  GI50: 25.7 µM
CCRF-CEM [2]
  GI50: 27.5 µM
LOX IMVI
  GI50: 17 µM
MDA-MB-435
  GI50: 16.2 µM
[4]
  GI50: 18.6 µM
IGROV-1 [12]
  inhibition at 10 µM: 46%
SNB-19
  GI50: 31.6 µM
TK-10
  GI50: 20.9 µM
COLO 205
  GI50: 14.8 µM
SF-539
  GI50: 22.4 µM
NCI-H23
  GI50: 25.7 µM
MCF7
  GI50: 26.9 µM
IGROV-1 [13]
  inhibition at 0.1 µM: 28%
A549
  GI50: 22.9 µM
MOLT-4
  GI50: 17 µM
[6]
  GI50: 16.6 µM
HT-29
  GI50: 17 µM
OVCAR-4
  GI50: 24.5 µM
OVCAR-8
  GI50: 26.3 µM
SK-MEL-5
  GI50: 17 µM
HCT-15
  GI50: 28.2 µM
SNB-75
  GI50: 20.9 µM
SF-268
  GI50: 24 µM
Malme-3M
  GI50: 21.4 µM
IGROV-1 [14]
  GI50: 11 µM
U-251
  GI50: 28.2 µM
RXF 393
  GI50: 18.6 µM
SR [7]
  GI50: 17 µM
PC-3
  GI50: 24 µM
IGROV-1 [15]
  inhibition at 1 µM: 32%
HCC 2998
  GI50: 29.5 µM
NCI-H522 [8]
  GI50: 13.5 µM
NCI-H460
  GI50: 20 µM
NCI-H226
  GI50: 26.3 µM
SF-295
  GI50: 26.9 µM
DU-145
  GI50: 26.9 µM
SW-620
  GI50: 30.2 µM
[9]
  GI50: 32.4 µM
RPMI-8226
  GI50: 21.9 µM
K562
  GI50: 20 µM
NCI-H522 [16]
  inhibition at 1 µM: 27%
786-0
  GI50: 26.3 µM
OVCAR-5
  GI50: 22.9 µM
SK-MEL-28
  GI50: 26.3 µM
NCI-H522 [17]
  inhibition at 10 µM: 36%
BT-549
  GI50: 17 µM
ACHN
  GI50: 27.5 µM
[10]
  GI50: 16.2 µM
NCI/ADR-RES
  GI50: 29.5 µM
HOP-62
  GI50: 31.6 µM
HOP-92
  GI50: 22.4 µM
OVCAR-3
  GI50: 19.5 µM
CAKI-1
  GI50: 32.4 µM
